Assay [1] deals with experimental wounds of streptozotocin-induced diabetic rats. Kind of assay: Wound healing in experimental wounds of streptozotocin-induced diabetic rats. The format is in vivo, rat. As to conditions: 6-week streptozotocin-induced diabetic rats treated with 20 mg/kg, compared with normal untreated rats; FIGS. 5, 6A-6B. The procedure:
The blood glucose levels of streptozotocin-induced diabetic rats was maintained at between 300-350 mg/dL with subcutaneous injection of insulin. Experimental wounds, having a diameter of […] and including the panniculus carnosus muscle, were made on the backs of diabetic rats. Wounds were serially photographed with a digital camera at the time of wounding, and then again every three days after wound induction until the time of closure, and the area of the wound measured (and expressed as cm^2). Wound closure was defined as complete epithelialization. The degree of wound contraction is calculated as: {(size of wound at day 0−size of wound at day X)/size of wound at day 0)}×100. Diabetic rats were administered 20 mg/kg of the aldose reductase inhibitor 3(4,5,7-triflurobenzothiazol-2-yl)methyl-indole-N-acetic acid at either the time of diabetes induction (simulating treatment prior to diabetic complications) or 6 weeks after diabetes induction (simulating treatment at the time of diabetic complications).

Assay [2] relates to full-thickness skin wounds of db/db mice. As to conditions: three doses on days 0, 1 and 2 under Tegederm wound dressing, dose of 10-1000 nM; cited from earlier work.

The values below come from US20020012630A1, “Methods for testing compounds useful in treating diabetic complications” (priority 2000, published 2002).

Where no end group is shown, it is not given here.

`O=C(O)Cn1cc(Cc2nc3c(F)c(F)cc(F)c3s2)c2ccccc21` [3-(4,5,7-triflurobenzothiazol-2-yl)methyl-indole-N-acetic acid]: the “wound healing rate (wound size and wound contraction)” value in assay [1] is on record as “healed at the same rate as the wounds in normal rats”. For “Substance P (RPKPQQFFGLM-NH2; ends and bridges not checked; UniProt P20366 58-68, looked up) [SP]”, the time of healing entry in assay [2] is given as “improved time of healing”.
